Assay results reported in the SangsterLogP compilation.

| logP | SMILES |
| --- | --- |
| 4.16 | CC(=O)c1cc2cccc3ccc4cccc1c4c32 |
| 3.77 | O=Cc1c2ccccc2cc2ccccc12 |
| 5.81 | Brc1ccc2ccc3cccc4ccc1c2c34 |
| 4.85 | COC(=O)c1cc2ccc3cccc4ccc(c1)c2c34 |
| 6.85 | Brc1cc(Br)c2ccc3cccc4ccc1c2c43 |
| 5.27 | Clc1c2ccccc2cc2ccccc12 |
| 5.84 | Brc1cc2cccc3ccc4cccc1c4c32 |
| 3.83 | COC(=O)c1c2ccccc2cc2ccccc12 |
| 5.8 | Brc1cc2ccc3cccc4ccc(c1)c2c34 |
| 4.36 | COc1c2ccccc2cc2ccccc12 |
| 3.6 | CC(=O)c1c2ccccc2cc2ccccc12 |
| 4.18 | CC(=O)c1ccc2ccc3cccc4ccc1c2c34 |
| 2.23 | NC(=O)c1c2ccccc2cc2ccccc12 |

The remaining lines, values behind:

| SMILES | logP |
| --- | --- |
| COC(=O)c1ccc2ccc3cccc4ccc1c2c34 | 4.73 |
| Brc1ccc2ccc3c(Br)ccc4ccc1c2c43 | 6.69 |
| Brc1c2ccccc2cc2ccccc12 | 5.37 |
| CC(=O)c1cc2ccc3cccc4ccc(c1)c2c34 | 4.29 |
| O=C1c2ccccc2C(=O)c2ccccc21 | 3.28 |
| Brc1ccc2ccc3ccc(Br)c4ccc1c2c34 | 6.73 |
| Brc1c2ccccc2c(Br)c2ccccc12 | 6.29 |
| O=Cc1ccc2ccc3cccc4ccc1c2c34 | 4.23 |
| N#Cc1c2ccccc2cc2ccccc12 | 3.98 |
